According to US9850283B2, “Macrocyclic inhibitors of the PD-1/PD-L1 and CD80(B7-1)/PD-L1 protein/protein interactions” (BRISTOL-MYERS SQUIBB COMPANY, priority 2013, dated 2017):
Positions of bridges follow the written chain, without caps; N, C: chain ends. Non-standard residues stand in square brackets, D forms with d. Residues, ends and D or L forms follow the SMILES beside them. ξ: configuration not given here. Bta = N[C@@H](Cc1csc2ccccc12)C(=O)O; Hyp = O=C(O)[C@@H]1C[C@@H](O)CN1; NMeNle = CCCC[C@H](NC)C(=O)O; NMeA = CN[C@@H](C)C(=O)O; ξC = NC(CS)C(=O)O

Legend:
[1] = target: T1, LK35.2-hPD-L1 cells / PE-labeled PD-1-Ig (Homo sapiens, UniProt Q9NZQ7); experiment: LK35.2-hPD-L1 cell binding high-content screening assay; type: cell-based; conditions: cell binding assay, cell line not given; cluster symbol; read-out: CBA IC50 cluster
T1 construct: expressed in transfected cells; host or cells: LK35.2 mouse B cell line
Method in brief: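 Binding of PE-conjugated human PD-1-Ig (1 nM final) to human PD-L1 stably expressed on a mouse B-cell line (LK35.2) was measured by high-content imaging after washes. Compound and labeled PD-1-Ig were co-incubated 1 h at 37 °C with cells in RPMI/10% FCS.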

Human PD-L1/PD-1 = target: T2, Human PD-L1/PD-1 (Homo sapiens, UniProt Q9NZQ7); experiment: HTRF PD-1-Ig/PD-L1-His binding assay (human PD-L1); conditions: cluster symbol; read-out: HTRF IC50 cluster
T2 construct: made in house; host or cells: HEK293T
Method in brief: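 Readout: time-resolved FRET between Eu cryptate-labeled anti-Ig (1 nM final) and APC-labeled anti-His (20 nM final) antibodies. These detect interaction of Fc-fused PD-1 with His-tagged human PD-L1 in dPBS containing 0.1% BSA and 0.05% Tween-20.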

T1 sequence (Q9NZQ7 19-290): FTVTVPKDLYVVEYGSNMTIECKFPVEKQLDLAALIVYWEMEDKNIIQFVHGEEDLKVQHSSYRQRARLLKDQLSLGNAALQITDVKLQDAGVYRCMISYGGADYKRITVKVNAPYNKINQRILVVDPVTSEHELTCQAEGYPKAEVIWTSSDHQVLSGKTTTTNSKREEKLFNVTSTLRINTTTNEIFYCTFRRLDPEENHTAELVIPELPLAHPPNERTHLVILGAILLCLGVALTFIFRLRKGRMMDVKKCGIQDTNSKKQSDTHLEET
T2 sequence (Q9NZQ7 with tags, fused parts or gaps): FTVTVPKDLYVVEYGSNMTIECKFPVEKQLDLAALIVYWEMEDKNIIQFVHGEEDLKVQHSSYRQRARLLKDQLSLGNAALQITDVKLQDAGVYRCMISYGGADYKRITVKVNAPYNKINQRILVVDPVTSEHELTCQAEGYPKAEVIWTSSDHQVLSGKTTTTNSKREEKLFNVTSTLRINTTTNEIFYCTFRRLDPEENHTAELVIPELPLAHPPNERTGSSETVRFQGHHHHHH

SMILES | IC50 [1] | IC50 (Human PD-L1/PD-1)
CCCC[C@H]1C(=O)N(C)[C@@H](CCCC)C(=O)N[C@@H](CCCNC(=N)N)C(=O)NC(C(=O)NCC(N)=O)CSCC(=O)N[C@@H](Cc2ccc(O)cc2)C(=O)N(C)[C@@H](C)C(=O)N[C@@H](CC(N)=O)C(=O)N2CCC[C@H]2C(=O)N[C@@H](CC(N)=O)C(=O)N[C@@H](CC(C)C)C(=O)N2CCC[C@H]2C(=O)N[C@@H](Cc2c[nH]c3ccccc23)C(=O)N[C@@H](CO)C(=O)N[C@@H](Cc2c[nH]c3ccccc23)C(=O)N1C (stereo partly drawn) [Example 9059] ({CH2CO}-Y[NMeA]NPNLPWSW[NMeNle][NMeNle]R[ξC]G-NH2; thioether N-14) | 4.78 to 72.9 nM | 6.76 to 30.3 nM
CCCC[C@H]1C(=O)N(C)[C@@H](CCCC)C(=O)N[C@@H](CCCNC(=N)N)C(=O)NC(C(=O)NCC(N)=O)CSCC(=O)N[C@@H](Cc2ccc(O)cc2)C(=O)N(C)[C@@H](C)C(=O)N[C@@H](CC(N)=O)C(=O)N2CCC[C@H]2C(=O)N[C@@H](CC(N)=O)C(=O)N[C@@H](CC(C)C)C(=O)N2C[C@H](O)C[C@H]2C(=O)N[C@@H](Cc2c[nH]c3ccccc23)C(=O)N[C@@H](CO)C(=O)N[C@@H](Cc2c[nH]c3ccccc23)C(=O)N1C (stereo partly drawn) [Example 9061] ({CH2CO}-Y[NMeA]NPNL[Hyp]WSW[NMeNle][NMeNle]R[ξC]G-NH2; thioether N-14) | 0.158 to 4.71 nM | 0.385 to 6.74 nM
CCCC[C@H]1C(=O)N(C)[C@@H](CCCC)C(=O)N[C@@H](CCCNC(=N)N)C(=O)NC(C(=O)NCC(N)=O)CSCC(=O)N[C@@H](Cc2ccc(O)cc2)C(=O)N(C)[C@@H](C)C(=O)N[C@@H](CC(N)=O)C(=O)N2CCC[C@H]2C(=O)N[C@@H](CC(N)=O)C(=O)N[C@@H](CC(C)C)C(=O)N2C[C@H](O)C[C@H]2C(=O)N[C@@H](Cc2c[nH]c3ccccc23)C(=O)N[C@@H](CO)C(=O)N[C@@H](Cc2csc3ccccc23)C(=O)N1C (stereo partly drawn) [Example 9062] ({CH2CO}-Y[NMeA]NPNL[Hyp]WS[Bta][NMeNle][NMeNle]R[ξC]G-NH2; thioether N-14) | 0.158 to 4.71 nM | 0.385 to 6.74 nM
CCCC[C@H]1C(=O)N(C)[C@@H](CCCC)C(=O)N[C@@H](CCCNC(=N)N)C(=O)NC(C(=O)NCC(N)=O)CSCC(=O)N[C@@H](Cc2ccc(O)cc2)C(=O)N(C)[C@@H](C)C(=O)N[C@@H](CC(N)=O)C(=O)N2CCC[C@H]2C(=O)N[C@@H](Cc2cnc[nH]2)C(=O)N[C@@H](CC(N)=O)C(=O)N2C[C@H](O)C[C@H]2C(=O)N[C@@H](Cc2c[nH]c3ccccc23)C(=O)N[C@@H](CO)C(=O)N[C@@H](Cc2c[nH]c3ccccc23)C(=O)N1C (stereo partly drawn) [Example 9065] ({CH2CO}-Y[NMeA]NPHN[Hyp]WSW[NMeNle][NMeNle]R[ξC]G-NH2; thioether N-14) | 0.158 to 4.71 nM | 0.385 to 6.74 nM
CCCC[C@H]1C(=O)N(C)[C@@H](CCCC)C(=O)N[C@@H](CCCNC(=N)N)C(=O)NC(C(=O)NCC(N)=O)CSCC(=O)N[C@@H](Cc2ccc(O)cc2)C(=O)N(C)[C@@H](C)C(=O)N[C@@H](CC(N)=O)C(=O)N2CCC[C@H]2C(=O)N[C@@H](Cc2cnc[nH]2)C(=O)N[C@@H](CO)C(=O)N2C[C@H](O)C[C@H]2C(=O)N[C@@H](Cc2c[nH]c3ccccc23)C(=O)N[C@@H](CO)C(=O)N[C@@H](Cc2c[nH]c3ccccc23)C(=O)N1C (stereo partly drawn) [Example 9069] ({CH2CO}-Y[NMeA]NPHS[Hyp]WSW[NMeNle][NMeNle]R[ξC]G-NH2; thioether N-14) | 0.158 to 4.71 nM | 0.385 to 6.74 nM
CCCC[C@H]1C(=O)N(C)[C@@H](CCCC)C(=O)N[C@@H](CCCNC(=N)N)C(=O)NC(C(=O)NCC(N)=O)CSCC(=O)N[C@@H](Cc2ccc(O)cc2)C(=O)N(C)[C@@H](C)C(=O)N[C@@H](CC(N)=O)C(=O)N2CCC[C@H]2C(=O)N[C@@H](CO)C(=O)N[C@@H](CC(C)C)C(=O)N2C[C@H](O)C[C@H]2C(=O)N[C@@H](Cc2c[nH]c3ccccc23)C(=O)N[C@@H](CO)C(=O)N[C@@H](Cc2csc3ccccc23)C(=O)N1C (stereo partly drawn) [Example 9071] ({CH2CO}-Y[NMeA]NPSL[Hyp]WS[Bta][NMeNle][NMeNle]R[ξC]G-NH2; thioether N-14) | 0.158 to 4.71 nM | 0.385 to 6.74 nM
CCCC[C@H]1C(=O)N(C)[C@@H](CCCC)C(=O)N[C@@H](CCCNC(=N)N)C(=O)NC(C(=O)NCC(N)=O)CSCC(=O)N[C@@H](Cc2ccc(O)cc2)C(=O)N(C)[C@@H](C)C(=O)N[C@@H](CC(N)=O)C(=O)N2CCC[C@H]2C(=O)N[C@@H](CO)C(=O)N[C@@H](CC(C)C)C(=O)N2CCC[C@H]2C(=O)N[C@@H](Cc2c[nH]c3ccccc23)C(=O)N[C@@H](CO)C(=O)N[C@@H](Cc2csc3ccccc23)C(=O)N1C (stereo partly drawn) [Example 9072] ({CH2CO}-Y[NMeA]NPSLPWS[Bta][NMeNle][NMeNle]R[ξC]G-NH2; thioether N-14) | 0.158 to 4.71 nM | 0.385 to 6.74 nM
CCCC[C@H]1C(=O)N(C)[C@@H](CCCC)C(=O)N[C@@H](CCCNC(=N)N)C(=O)NC(C(=O)NCC(N)=O)CSCC(=O)N[C@@H](Cc2ccc(O)cc2)C(=O)N(C)[C@@H](C)C(=O)N[C@@H](CC(N)=O)C(=O)N2CCC[C@H]2C(=O)N[C@@H](CO)C(=O)N[C@@H](CC(C)C)C(=O)N2CCC[C@H]2C(=O)N[C@@H](Cc2c[nH]c3ccccc23)C(=O)N[C@@H](CO)C(=O)N[C@@H](Cc2c[nH]c3ccccc23)C(=O)N1C (stereo partly drawn) [Example 9073] ({CH2CO}-Y[NMeA]NPSLPWSW[NMeNle][NMeNle]R[ξC]G-NH2; thioether N-14) | 0.158 to 4.71 nM | 0.385 to 6.74 nM
CCCC[C@H]1C(=O)N(C)[C@@H](CCCC)C(=O)N[C@@H](CCCNC(=N)N)C(=O)NC(C(=O)NCC(N)=O)CSCC(=O)N[C@@H](Cc2ccc(O)cc2)C(=O)N(C)[C@@H](C)C(=O)N[C@@H](CC(N)=O)C(=O)N2CCC[C@H]2C(=O)N[C@@H](CO)C(=O)N[C@@H](CC(C)C)C(=O)N2C[C@H](O)C[C@H]2C(=O)N[C@@H](Cc2c[nH]c3ccccc23)C(=O)N[C@@H](CO)C(=O)N[C@@H](Cc2c[nH]c3ccccc23)C(=O)N1C (stereo partly drawn) [Example 9074] ({CH2CO}-Y[NMeA]NPSL[Hyp]WSW[NMeNle][NMeNle]R[ξC]G-NH2; thioether N-14) | 0.158 to 4.71 nM | 0.385 to 6.74 nM

The remaining lines, values ahead:

IC50 [1] | IC50 (Human PD-L1/PD-1) | SMILES
0.158 to 4.71 nM | 0.385 to 6.74 nM | CCCC[C@H]1C(=O)N(C)[C@@H](CCCC)C(=O)N[C@@H](CCCNC(=N)N)C(=O)NC(C(=O)NCC(N)=O)CSCC(=O)N[C@@H](Cc2ccc(O)cc2)C(=O)N(C)[C@@H](C)C(=O)N[C@@H](CC(N)=O)C(=O)N2CCC[C@H]2C(=O)N[C@@H](CC(N)=O)C(=O)N[C@@H](CC(C)C)C(=O)N2CCC[C@H]2C(=O)N[C@@H](Cc2c[nH]c3ccccc23)C(=O)N[C@@H](CO)C(=O)N[C@@H](Cc2csc3ccccc23)C(=O)N1C (stereo partly drawn) [Example 9060] ({CH2CO}-Y[NMeA]NPNLPWS[Bta][NMeNle][NMeNle]R[ξC]G-NH2; thioether N-14)
0.158 to 4.71 nM | 0.385 to 6.74 nM | CCCC[C@H]1C(=O)N(C)[C@@H](CCCC)C(=O)N[C@@H](CCCNC(=N)N)C(=O)NC(C(=O)NCC(N)=O)CSCC(=O)N[C@@H](Cc2ccc(O)cc2)C(=O)N(C)[C@@H](C)C(=O)N[C@@H](CC(N)=O)C(=O)N2CCC[C@H]2C(=O)N[C@@H](Cc2cnc[nH]2)C(=O)N[C@@H](CC(N)=O)C(=O)N2CCC[C@H]2C(=O)N[C@@H](Cc2c[nH]c3ccccc23)C(=O)N[C@@H](CO)C(=O)N[C@@H](Cc2c[nH]c3ccccc23)C(=O)N1C (stereo partly drawn) [Example 9063] ({CH2CO}-Y[NMeA]NPHNPWSW[NMeNle][NMeNle]R[ξC]G-NH2; thioether N-14)
0.158 to 4.71 nM | 0.385 to 6.74 nM | CCCC[C@H]1C(=O)N(C)[C@@H](CCCC)C(=O)N[C@@H](CCCNC(=N)N)C(=O)NC(C(=O)NCC(N)=O)CSCC(=O)N[C@@H](Cc2ccc(O)cc2)C(=O)N(C)[C@@H](C)C(=O)N[C@@H](CC(N)=O)C(=O)N2CCC[C@H]2C(=O)N[C@@H](Cc2cnc[nH]2)C(=O)N[C@@H](CC(N)=O)C(=O)N2CCC[C@H]2C(=O)N[C@@H](Cc2c[nH]c3ccccc23)C(=O)N[C@@H](CO)C(=O)N[C@@H](Cc2csc3ccccc23)C(=O)N1C (stereo partly drawn) [Example 9064] ({CH2CO}-Y[NMeA]NPHNPWS[Bta][NMeNle][NMeNle]R[ξC]G-NH2; thioether N-14)
0.158 to 4.71 nM | 0.385 to 6.74 nM | CCCC[C@H]1C(=O)N(C)[C@@H](CCCC)C(=O)N[C@@H](CCCNC(=N)N)C(=O)NC(C(=O)NCC(N)=O)CSCC(=O)N[C@@H](Cc2ccc(O)cc2)C(=O)N(C)[C@@H](C)C(=O)N[C@@H](CC(N)=O)C(=O)N2CCC[C@H]2C(=O)N[C@@H](Cc2cnc[nH]2)C(=O)N[C@@H](CC(N)=O)C(=O)N2C[C@H](O)C[C@H]2C(=O)N[C@@H](Cc2c[nH]c3ccccc23)C(=O)N[C@@H](CO)C(=O)N[C@@H](Cc2csc3ccccc23)C(=O)N1C (stereo partly drawn) [Example 9066] ({CH2CO}-Y[NMeA]NPHN[Hyp]WS[Bta][NMeNle][NMeNle]R[ξC]G-NH2; thioether N-14)
0.158 to 4.71 nM | 0.385 to 6.74 nM | CCCC[C@H]1C(=O)N(C)[C@@H](CCCC)C(=O)N[C@@H](CCCNC(=N)N)C(=O)NC(C(=O)NCC(N)=O)CSCC(=O)N[C@@H](Cc2ccc(O)cc2)C(=O)N(C)[C@@H](C)C(=O)N[C@@H](CC(N)=O)C(=O)N2CCC[C@H]2C(=O)N[C@@H](Cc2cnc[nH]2)C(=O)N[C@@H](CO)C(=O)N2CCC[C@H]2C(=O)N[C@@H](Cc2c[nH]c3ccccc23)C(=O)N[C@@H](CO)C(=O)N[C@@H](Cc2c[nH]c3ccccc23)C(=O)N1C (stereo partly drawn) [Example 9067] ({CH2CO}-Y[NMeA]NPHSPWSW[NMeNle][NMeNle]R[ξC]G-NH2; thioether N-14)
0.158 to 4.71 nM | 6.76 to 30.3 nM | CCCC[C@H]1C(=O)N(C)[C@@H](CCCC)C(=O)N[C@@H](CCCNC(=N)N)C(=O)NC(C(=O)NCC(N)=O)CSCC(=O)N[C@@H](Cc2ccc(O)cc2)C(=O)N(C)[C@@H](C)C(=O)N[C@@H](CC(N)=O)C(=O)N2CCC[C@H]2C(=O)N[C@@H](Cc2cnc[nH]2)C(=O)N[C@@H](CO)C(=O)N2C[C@H](O)C[C@H]2C(=O)N[C@@H](Cc2c[nH]c3ccccc23)C(=O)N[C@@H](CO)C(=O)N[C@@H](Cc2csc3ccccc23)C(=O)N1C (stereo partly drawn) [Example 9070] ({CH2CO}-Y[NMeA]NPHS[Hyp]WS[Bta][NMeNle][NMeNle]R[ξC]G-NH2; thioether N-14)
